US20060116343A1, “Sphingosine kinase-1 mediates gene expression regulation of a monocyte chemoattractant protein-1 gene” (priority 2004, published 2006)

Experiments:
Format in all cases: cell-based, human
[1] = test system: MCP-1 gene expression in HMVECs; assay: cDNA microarray analysis of gene expression in stimulated HMVECs; settings: four hours; for MCP-1 gene expression in response to stimulus (microarray): thrombin 100 nM or TNF-α 20 ng/ml
Experimental: In an effort to rapidly assess the potential overall role of SK1 in endothelial cell function, a cDNA microarray analyses was performed in HMVEC in the absence and presence of the SK1 inhibitor DMS. The cells were stimulated through two receptor subtypes: G-protein coupled receptors, for which the Protease Activate Receptor (PAR) family was utilized with thrombin as the agonist and cytokine receptors with TNF-α as the agonist
Cell Culture—Adult human microvascular endothelial cells (HMVECs) (Cambrex) were cultured in EGM complete media (Cambrex). Cells were used between the third and sixth passages for all studies.
Microarray Study—Adult human microvascular endothelial cells (HMVECs) (Cambrex) were placed into culture (5% FBS) and stimulated with thrombin (100 nM) or TNF-α (20 ng/ml) in the absence or presence of DMS (10 μM), a potent inhibitor of sphingosine kinase. After four hours of stimulation, RNA was isolated (Tri-Reagent, Bio-Mol), DNAse treated and cleaned using the RNeasy maxi kit (Qiagen). Upon validation of RNA purity using the Agilent 2100 Bioanalyzer, RNA was then subjected to cDNA microarray analyses.
A cDNA microarray containing 3563 cDNA clones was used in this study. In the gene expression studies two types of replications were used, biological and technical. Duplicate biological samples were harvested for each experimental condition for the initial microarray analyses. Additionally technical replication was employed as all samples were run in triplicate on separate microarrays. The microarray data from each sample were subjected to outlier removal based on technical replication and normalization based on both the technical and biological replication. The normalization consisted of an initial normalization between hybridization replicates within a single sample, followed by a secondary normalization across all samples within the study (Shaw et al., J Mol Microbiol Biotechnol, 2003, 5:105-122). […] After cleanup and subsequent normalizations, a single ratio was calculated for each treatment to its assigned control. […]

[2] = test system: MCP-1 protein secretion from HMVECs; assay: MCP-1 ELISA of HMVEC supernatant; settings: 24 hours; for effect of inhibitor pretreatment on induced MCP-1 protein secretion: DMS 10 μM, Bay11-7092 10 μM, GF109203x 1 μM, PD98059 10 μM, stimulation with Thrombin 100 nM, PAR-1-AP 100 nM or (Thrombin 0.1 ng/ml); for MCP-1 protein secretion in response to stimulus (ELISA): thrombin 100 nM or varying concentrations of PAR-activating peptides
Experimental: HMVECs were placed into culture and stimulated with Thrombin (100 nM) or varying concentrations of PAR-activating peptides. 24 hours later, we used ELISA to detect secretion of MCP-1 into supernatant.
MCP-1 ELISA—HMVECs were placed into culture in 96-well dishes (2×10^3 cells/well) and grown for 24 hours in complete growth media. Cells were transfected with control non-silencing siRNA or siRNAs for hSK1 or hSK2 in serum-free Opti-MEM (Gibco) for 4 hours. Cells were then allowed to grow for 24 hours in media containing 10% FBS, after which the cells were serum starved in 0.5% FBS media overnight. Cells were subsequently stimulated with fresh 0.5% FBS containing media and incubated under various experimental conditions for an additional 24 hours. Where indicated, cells were pre-incubated with specific compound inhibitors, for 20 minutes, prior to stimulation. Supernatants were collected and analyzed by ELISA (Cell Sciences).
HMVECs were transfected with siRNAs (1.6 μg), hSK1-specific, hSK2-specific or control non-silencing siRNAs. After 48 hours, cells were stimulated with Thrombin (100 nM), PAR-1-AP (300 μM) or PAR-4-AP (600 μM). ELISA was performed to detect MCP-1 secretion into cell supernatant. […] Furthermore, basal levels of MCP-1 protein secretion appeared to be effected as well, as the level of MCP-1 protein secretion in cells that were unstimulated or stimulated with PAR-4-AP was decreased from cells transfected with hSK1 specific siRNA.
HMVECs were placed into culture overnight, and pretreated with inhibitors to hSK (DMS 10 μM), NF-κB (Bay11-7092 10 μM), PKC (GF109203x 1 μM), or Erk (PD98059 10 μM) prior to stimulation with Thrombin (100 nM), PAR-1-AP (TFLLRN 100 nM), or (Thrombin 0.1 ng/ml). ELISAs were performed 24 hours after stimulation to measure the amount of MCP-1 secretion. […] Furthermore we observed that NF-κB activity is a prerequisite for MCP-1 expression as well, as pretreatment with the NF-κB inhibitor, Bay11-7092, abrogated the induction of MCP-1 protein secretion by all agonists.
HMVECs were placed into culture overnight, and pretreated with inhibitors to hSK (DMS 10 μM), NF-κB (Bay11-7092 10 μM), PKC (GF109203×1 μM), or Erk (PD98059 10 μM) prior to stimulation with 5 μM S1P. ELISAs were performed to detect the levels of secreted MCP-1 protein. […] There was no elevation of MCP-1 protein by the external addition of S1P. Therefore, we rule out a role for S1P receptors in the hSK-dependent release of MCP-1 from HMVECs.

[3] = test system: MCP-1 transcripts in HMVECs; assay: Quantitative RT-PCR of MCP-1 transcripts in stimulated HMVECs; settings: thrombin 100 nM
From the text: In the presence of hSK1-specific siRNAs, induction of MCP-1 was inhibited whereas in the presence of hSK2-specific or control non-silencing siRNAs, MCP-1 induction was not affected.
Evaluation of siRNA Transfection Efficiency and Silencing Capabilities—Small interfering RNAs (siRNAs) were designed and synthesized to target either sequences for hSK1, SEQ ID NO: 1 ([…]) or hSK2, SEQ ID NO:2 ([…]) transcripts as well as control non-silencing siRNA, SEQ ID NO:3 ([…]), which has no sequence target in the human genome (Qiagen). The oligonucleotides were fluorescein-conjugated on the 3′ end of the sense strand, which facilitated visualization of transfection efficiency by fluorescence confocal microscopy (LSM 510, Zeiss). […] For experimental studies RNA were isolated, DNAse treated and subjected to quantitative RT-PCR analyses to detect transcript levels of hSK1, hSK2, MCP-1 and control 18S transcripts using predesigned primers from Applied Biosystems. […]
Quantitative RT-PCR—HMVECs were placed into culture overnight and stimulated with thrombin (100 nM) after which RNA was isolated and DNAse treated. TaqMan® quantitative RT-PCRs were performed in triplicate as validation of microarray analyses according to manufacturers instructions (Applied Biosystems). The quantity mean for each detector was normalized to that of the 18S detector.

Compound: CCCCCCCCCCCCC/C=C/[C@@H](O)[C@H](CO)N(C)C [DMS, dimethylsphingosine]
- effect on thrombin- and TNF-α-induced MCP-1 gene expression (microarray) ([1]; DMS 10 μM added prior to stimulation with thrombin 100 nM or TNF-α 20 ng/ml): inhibited
- effect on thrombin- or PAR-1 agonist peptide-stimulated secretion of MCP-1 protein ([2]; HMVECs pretreated with DMS prior to stimulation): inhibited secretion of MCP-1 protein
- effect of inhibitor pretreatment on induced MCP-1 protein secretion ([2]; HMVECs): hSK activity is required

Compound: CN(C)CCCn1cc(C2=C(c3c[nH]c4ccccc34)C(=O)NC2=O)c2ccccc21 [GF109203x]
- effect of inhibitor pretreatment on induced MCP-1 protein secretion ([2]; HMVECs): intermediate effect

Compound: COc1cccc(-c2cc(=O)c3ccccc3o2)c1N [PD98059]
- effect of inhibitor pretreatment on induced MCP-1 protein secretion ([2]; HMVECs): no effect

Compound: CCCCCCCCCCCCC/C=C/[C@@H](O)[C@@H](N)COP(=O)(O)O [S1P, Sphingosine-1-phosphate]
- MCP-1 protein secretion after external addition of S1P ([2]; HMVECs, 5 μM S1P): no elevation

Compound: TFLLRN [PAR-1-AP]
- MCP-1 protein secretion in response to stimulus (ELISA) ([2]; HMVECs): stimulated secretion of MCP-1

Compound: TNF-α
- MCP-1 gene expression in response to stimulus (microarray) [1]: induced

Compound: thrombin
- MCP-1 gene expression in response to stimulus (microarray) [1]: induced
- MCP-1 transcripts in response to stimulus (quantitative RT-PCR) [3]: induction of MCP-1 transcripts
- MCP-1 protein secretion in response to stimulus (ELISA) ([2]; HMVECs): augmented
